Source: paper PMC7815315, “Atomic structures of respiratory complex III2, complex IV, and supercomplex III2-IV from vascular plants” (eLife, 2021)

Molecular target: T1, VrCIII2 (complex III dimer, cytochrome bc1 complex); cytochrome b (COB) sites (Vigna radiata, UniProt E9KZM1)
T1 construct: native obligate dimer, 10 subunits per monomer, from mitochondria of etiolated hypocotyls; digitonin-extracted, amphipol A8-35; RNA-edited COB; partially purified (sucrose gradient); with Cytochrome c1, heme protein, mitochondrial; Cytochrome b-c1 complex subunit Rieske, mitochondrial; Mitochondrial-processing peptidase subunit alpha; Mitochondrial-processing peptidase subunit beta; Cytochrome b-c1 complex subunit 6; Cytochrome b-c1 complex subunit 7; Cytochrome b-c1 complex subunit 8; Cytochrome b-c1 complex subunit 9; Cytochrome b-c1 complex subunit 10
Test: spectroscopic cytochrome c reduction at […] nm, pooled gradient fractions
Assay type: biochemical
Conditions: 100 uM reduced decylubiquinone, 100 uM equine cyt c, pH 7.8, room temperature

CCCCCCCCCCc1c(C)c(O)c(OC)c(OC)c1O [reduced decylubiquinone]
spectroscopic cytochrome c reduction at 550 nm, pooled gradient fractions: CIII2 respiratory activity (electron transfer from reduced decylubiquinone to cytochrome c)
